Results published in patent publication US6949383B2 (priority 1998, dated 2005).

Assays:
Type in all cases: cell-based, Escherichia coli
dnaQ = tested on: dnaQ
Wild-Type = tested on: Wild-Type
[1] = tested on: Super-Oflo.-resisting dnaQ; experiment: Minimum growth inhibiting concentration (MIC) of antibiotic substances
dnaQ49 strain = experiment: Drug resistance reached by repeated mutagenesis and selection (Example 2)

`CC1COc2c(N3CCN(C)CC3)c(F)cc3c(=O)c(C(=O)O)cn1c23` (centres unmarked) [Ofloxacin] was tested, and the “Minimum growth inhibiting concentration (MIC)” value (dnaQ) was 0.0156, the “Minimum growth inhibiting concentration (MIC)” value (Wild-Type) was 0.0625 and the “Minimum growth inhibiting concentration (MIC)” value [1] was 1024. The “Concentration of Ofloxacin” value (dnaQ49 strain; mutagenesis treatment for 1 time) was 0.001 µg/mL, the “Concentration of Ofloxacin” value (dnaQ49 strain; mutagenesis treatments for 2 times) was 0.01 µg/mL and the “Concentration of Ofloxacin” value (dnaQ49 strain; mutagenesis treatments for 3 times) was 0.1 µg/mL. For the same compound, the “Concentration of Ofloxacin” value (dnaQ49 strain; mutagenesis treatments for 4 times) was 1 µg/mL, the “Concentration of Ofloxacin” value (dnaQ49 strain; mutagenesis treatments for 5 times) was 10 µg/mL and the “Concentration of Ofloxacin” value (dnaQ49 strain; mutagenesis treatments for 6 times) was 30 µg/mL. For the same compound, the “Concentration of Ofloxacin” value (dnaQ49 strain; mutagenesis treatments for 7 times) was 50 µg/mL, the “Concentration of Ofloxacin” value (dnaQ49 strain; mutagenesis treatments for 8 times) was 60 µg/mL and the “Concentration of Ofloxacin” value (dnaQ49 strain; mutagenesis treatments for 9 times) was 70 µg/mL. For the same compound, the “Concentration of Ofloxacin” value (dnaQ49 strain; mutagenesis treatments for 10 times) was 80 µg/mL, the “Concentration of Ofloxacin” value (dnaQ49 strain; mutagenesis treatments for 11 times) was 90 µg/mL and the “Concentration of Ofloxacin” value (dnaQ49 strain; mutagenesis treatments for 12 times) was 100 µg/mL. The “Concentration of Ofloxacin” value (dnaQ49 strain; mutagenesis treatments for 13 times) was 120 µg/mL, the “Concentration of Ofloxacin” value (dnaQ49 strain; mutagenesis treatments for 14 times) was 132 µg/mL and the “Concentration of Ofloxacin” value (dnaQ49 strain; mutagenesis treatments for 15 times) was 144 µg/mL. The “Concentration of Ofloxacin” value (dnaQ49 strain; mutagenesis treatments for 16 times) was 150 µg/mL, the “Concentration of Ofloxacin” value (dnaQ49 strain; mutagenesis treatments for 17 times) was 156 µg/mL and the “Concentration of Ofloxacin” value (dnaQ49 strain; mutagenesis treatments for 18 times) was 168 µg/mL. For the same compound, the “Concentration of Ofloxacin” value (dnaQ49 strain; mutagenesis treatments for 19 times) was 180 µg/mL, the “Concentration of Ofloxacin” value (dnaQ49 strain; mutagenesis treatments for 20 times) was 210 µg/mL and the “Concentration of Ofloxacin” value (dnaQ49 strain; mutagenesis treatments for 21 times) was 240 µg/mL. The “Concentration of Ofloxacin” value (dnaQ49 strain; mutagenesis treatments for 22 times) was 270 µg/mL, the “Concentration of Ofloxacin” value (dnaQ49 strain; mutagenesis treatments for 23 times) was 300 µg/mL and the “Concentration of Ofloxacin” value (dnaQ49 strain; mutagenesis treatments for 24 times) was 320 µg/mL. The “Concentration of Ofloxacin” value (dnaQ49 strain; mutagenesis treatments for 25 times) was 330 µg/mL, the “Concentration of Ofloxacin” value (dnaQ49 strain; mutagenesis treatments for 26 times) was 340 µg/mL and the “Concentration of Ofloxacin” value (dnaQ49 strain; mutagenesis treatments for 27 times) was 350 µg/mL. The “Concentration of Ofloxacin” value (dnaQ49 strain; mutagenesis treatments for 28 times) was 360 µg/mL, the “Concentration of Ofloxacin” value (dnaQ49 strain; mutagenesis treatments for 29 times) was 370 µg/mL and the “Concentration of Ofloxacin” value (dnaQ49 strain; mutagenesis treatments for 30 times) was 380 µg/mL. For the same compound, the “Concentration of Ofloxacin” value (dnaQ49 strain; mutagenesis treatments for 31 times) was 400 µg/mL, the “Concentration of Ofloxacin” value (dnaQ49 strain; mutagenesis treatments for 32 times) was 425 µg/mL and the “Concentration of Ofloxacin” value (dnaQ49 strain; mutagenesis treatments for 33 times) was 450 µg/mL. For the same compound, the “Concentration of Ofloxacin” value (dnaQ49 strain; mutagenesis treatments for 34 times) was 475 µg/mL and the “Concentration of Ofloxacin” value (dnaQ49 strain; mutagenesis treatments for 35 times) was 500 µg/mL.
